In PubChem BioAssay (NCI):
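Tested at 5 concentrations; 48 h exposure; 96-well plates; endpoints linearly interpolated, else capped at highest concentration. GI50: concentration for 50% inhibition of growth. TGI is the concentration that stops growth completely.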

Assays:
Assay in all cases: NCI anticancer screen, dose series, 48 h
HCC-2998 colon = test system: HCC-2998 colon
OVCAR-3 ovarian = test system: OVCAR-3 ovarian
UACC-62 melanoma = test system: UACC-62 melanoma
M14 melanoma = test system: M14 melanoma
ACHN renal = test system: ACHN renal
NCI-H522 lung = test system: NCI-H522 lung
RPMI-8226 leukemia = test system: RPMI-8226 leukemia
SR leukemia = test system: SR leukemia
SF-539 CNS = test system: SF-539 CNS
CCRF-CEM leukemia = test system: CCRF-CEM leukemia
SF-295 CNS = test system: SF-295 CNS

COc1cc2c(cc1OCCCCCCCCN1C(=O)c3cccc4cccc(c34)C1=O)N=C[C@@H]1CCCN1C2=O
TGI (HCC-2998 colon): 30.7 µM
TGI (OVCAR-3 ovarian): 55.9 µM
TGI (UACC-62 melanoma): 28.4 µM
TGI (M14 melanoma): > 100 µM
TGI (ACHN renal): > 100 µM
TGI (NCI-H522 lung): 39.9 µM
TGI (RPMI-8226 leukemia): 8.53 µM
TGI (SR leukemia): 21.7 µM
TGI (SF-539 CNS): 13.2 µM
TGI (CCRF-CEM leukemia): 7.28 µM
TGI (SF-295 CNS): 43 µM

N#Cc1c(N)nc2c(c1-c1ccc(Br)cc1)CSc1ccccc1-2
TGI (OVCAR-3 ovarian): > 100 µM
TGI (UACC-62 melanoma): 78.1 µM
TGI (M14 melanoma): > 100 µM
TGI (RPMI-8226 leukemia): 61.1 µM
TGI (SR leukemia): > 100 µM
TGI (SF-539 CNS): > 100 µM
TGI (CCRF-CEM leukemia): 92 µM

Cc1cnoc1NS(=O)(=O)c1ccc(Nc2nnc(/C=C/c3c(O)ccc4ccccc34)c(=O)n2N)cc1
TGI (OVCAR-3 ovarian): 60.1 µM
TGI (UACC-62 melanoma): 52.5 µM
TGI (M14 melanoma): 75.7 µM
TGI (ACHN renal): 55.1 µM
TGI (RPMI-8226 leukemia): 71.6 µM
TGI (SR leukemia): 55.6 µM
TGI (CCRF-CEM leukemia): > 100 µM
TGI (SF-295 CNS): > 100 µM

COc1ccc(C2c3cc4c(cc3OC(O)(CO)C2C(=O)O)OCO4)cc1 (stereo not given) (tested in a mixture with another compound)
TGI (HCC-2998 colon): 38.2 µM
TGI (OVCAR-3 ovarian): 54.4 µM
TGI (UACC-62 melanoma): 36.4 µM
TGI (M14 melanoma): 29.1 µM
TGI (RPMI-8226 leukemia): 49.5 µM
TGI (SR leukemia): 56.2 µM
TGI (SF-539 CNS): 43.6 µM
TGI (CCRF-CEM leukemia): 55.5 µM
TGI (SF-295 CNS): 57.3 µM

COc1cc([C@@H]2c3cc4c(cc3[C@@H](c3c(O)cc(O)c5c3O[C@H](c3ccc(O)c(O)c3)[C@H](OC(=O)c3cc(O)c(O)c(O)c3)C5)[C@H]3COC(=O)[C@H]23)OCO4)cc(OC)c1OC
TGI (HCC-2998 colon): 71.7 µM
TGI (OVCAR-3 ovarian): > 21.9 µM
TGI (UACC-62 melanoma): > 100 µM
TGI (M14 melanoma): > 100 µM
TGI (ACHN renal): > 50 µM
TGI (NCI-H522 lung): > 100 µM
TGI (RPMI-8226 leukemia): > 100 µM
TGI (SR leukemia): 8.14 µM
TGI (SF-539 CNS): > 100 µM
TGI (CCRF-CEM leukemia): 16.2 µM
TGI (SF-295 CNS): > 41.8 µM

O=c1c2ccccc2[nH]c(=S)n1-c1ccc(N=Nc2cccc3cc(O)ccc23)cc1
TGI (HCC-2998 colon): > 100 µM
TGI (OVCAR-3 ovarian): > 100 µM
TGI (UACC-62 melanoma): > 100 µM
TGI (M14 melanoma): > 100 µM
TGI (ACHN renal): > 100 µM
TGI (NCI-H522 lung): > 100 µM
TGI (RPMI-8226 leukemia): > 100 µM
TGI (SR leukemia): > 100 µM
TGI (SF-539 CNS): > 100 µM
TGI (CCRF-CEM leukemia): > 100 µM
TGI (SF-295 CNS): > 100 µM

O=C1CC2(CCC(O)(c3cccs3)C(C(=O)c3cccs3)C2)C(=O)c2ccccc2N1 (stereo not given)
TGI (HCC-2998 colon): > 100 µM
TGI (OVCAR-3 ovarian): > 100 µM
TGI (UACC-62 melanoma): > 100 µM
TGI (M14 melanoma): > 100 µM
TGI (SR leukemia): > 100 µM
TGI (SF-539 CNS): > 100 µM
TGI (CCRF-CEM leukemia): > 100 µM
TGI (SF-295 CNS): > 100 µM

O=C1c2ccccc2C(C2c3ccccc3C(=O)c3cc(Br)ccc32)c2ccc(Br)cc21 (stereo not given)
TGI (HCC-2998 colon): > 100 µM
TGI (OVCAR-3 ovarian): > 100 µM
TGI (UACC-62 melanoma): > 100 µM
TGI (M14 melanoma): > 100 µM
TGI (ACHN renal): > 100 µM
TGI (NCI-H522 lung): > 100 µM
TGI (RPMI-8226 leukemia): > 100 µM
TGI (SF-295 CNS): > 100 µM

COC1CC(CC2CCC(C)C(C(C)C(=O)O)O2)OC2(OC(C)(C3CCC(C)(C4OC(C5OC(O)(CO)C(C)CC5C)CC4C)O3)CC2C)C1C (stereo not given)
TGI (HCC-2998 colon): 11.5 µM
TGI (OVCAR-3 ovarian): 14 µM
TGI (UACC-62 melanoma): 4.44 µM
TGI (M14 melanoma): 5.82 µM
TGI (ACHN renal): 45.1 µM
TGI (NCI-H522 lung): 0.591 µM
TGI (RPMI-8226 leukemia): 8.39 µM
TGI (SR leukemia): 1.54 µM
TGI (SF-539 CNS): 10.3 µM
TGI (CCRF-CEM leukemia): 17.7 µM
TGI (SF-295 CNS): 11.6 µM

CC(C)(C)[Si](C)(C)OCC1OC(n2cnc3c(N)ncnc32)CC1OS(C)(=O)=O (stereo not given)
TGI (OVCAR-3 ovarian): > 100 µM
TGI (UACC-62 melanoma): > 100 µM
TGI (M14 melanoma): > 100 µM
TGI (RPMI-8226 leukemia): > 100 µM
TGI (SR leukemia): > 100 µM
TGI (CCRF-CEM leukemia): > 100 µM
TGI (SF-295 CNS): > 100 µM

Nc1ccc(-c2nc3cc(F)ccc3s2)cc1CO
TGI (HCC-2998 colon): 6.17 µM
TGI (OVCAR-3 ovarian): > 100 µM
TGI (UACC-62 melanoma): > 58.7 µM
TGI (M14 melanoma): > 100 µM
TGI (ACHN renal): > 100 µM
TGI (NCI-H522 lung): > 100 µM
TGI (RPMI-8226 leukemia): > 100 µM
TGI (SF-539 CNS): 46.7 µM
TGI (CCRF-CEM leukemia): > 100 µM
TGI (SF-295 CNS): 34.8 µM

CCOC(=O)C(=O)NCCCN1CCOCC1
TGI (HCC-2998 colon): > 100 µM
TGI (OVCAR-3 ovarian): > 100 µM
TGI (UACC-62 melanoma): > 100 µM
TGI (M14 melanoma): > 100 µM
TGI (ACHN renal): > 100 µM
TGI (NCI-H522 lung): > 100 µM
TGI (SF-539 CNS): > 100 µM
TGI (CCRF-CEM leukemia): > 100 µM
TGI (SF-295 CNS): > 100 µM

CCCSc1ccc2[nH]c(N3C(=O)/C(=C/c4cc(OC)c(OC)c(OC)c4)N=C3c3ccccc3)cc2c1
TGI (HCC-2998 colon): > 32.6 µM
TGI (OVCAR-3 ovarian): 26.5 µM
TGI (UACC-62 melanoma): > 37.5 µM
TGI (M14 melanoma): > 30.8 µM
TGI (ACHN renal): > 37.5 µM
TGI (NCI-H522 lung): 26.8 µM
TGI (RPMI-8226 leukemia): 27.1 µM
TGI (SR leukemia): > 34.9 µM
TGI (SF-539 CNS): 23.6 µM
TGI (CCRF-CEM leukemia): > 32.9 µM
TGI (SF-295 CNS): 37.1 µM

COC(=S)OC1CC(n2cnc3c(N)ncnc32)OC1CO[Si](C)(C)C(C)(C)C (stereo not given)
TGI (OVCAR-3 ovarian): 31 µM
TGI (UACC-62 melanoma): 24 µM
TGI (M14 melanoma): 43.3 µM
TGI (RPMI-8226 leukemia): > 100 µM
TGI (SR leukemia): > 100 µM
TGI (CCRF-CEM leukemia): 75.9 µM
TGI (SF-295 CNS): 34.6 µM

COC(=O)C[C@H](COCc1ccccc1)NC(=O)C[C@H](COCc1ccccc1)NC(=O)OC(C)(C)C
TGI (OVCAR-3 ovarian): 86.9 µM
TGI (UACC-62 melanoma): > 100 µM
TGI (M14 melanoma): > 100 µM
TGI (ACHN renal): > 100 µM
TGI (NCI-H522 lung): 54 µM
TGI (RPMI-8226 leukemia): > 100 µM
TGI (SR leukemia): > 100 µM
TGI (SF-539 CNS): > 100 µM
TGI (CCRF-CEM leukemia): > 100 µM
TGI (SF-295 CNS): > 100 µM

O=C(O)C(O)C(O)C(O)C(=O)CO (stereo not given)
TGI (HCC-2998 colon): > 100 µM
TGI (OVCAR-3 ovarian): > 100 µM
TGI (UACC-62 melanoma): > 100 µM
TGI (M14 melanoma): > 100 µM
TGI (ACHN renal): > 100 µM
TGI (NCI-H522 lung): > 100 µM
TGI (RPMI-8226 leukemia): > 100 µM
TGI (SR leukemia): > 100 µM
TGI (SF-539 CNS): > 100 µM
TGI (CCRF-CEM leukemia): > 100 µM
TGI (SF-295 CNS): > 100 µM

O=C1/C(=C\c2ccc(F)cc2)CCOc2c1ccc1ccccc21
TGI (HCC-2998 colon): 17.7 µM
TGI (OVCAR-3 ovarian): 27.9 µM
TGI (UACC-62 melanoma): > 100 µM
TGI (M14 melanoma): 82.7 µM
GI50 (ACHN renal): 47.9 µM
TGI (ACHN renal): > 100 µM
TGI (NCI-H522 lung): > 100 µM
TGI (RPMI-8226 leukemia): 9.45 µM
TGI (SF-539 CNS): 48.5 µM
TGI (CCRF-CEM leukemia): 35.9 µM
TGI (SF-295 CNS): 70.3 µM

Cc1ccccc1NC(=O)CC(=O)N1N=C(N2c3ccccc3Sc3ccccc32)CC1c1ccccc1 (stereo not given)
TGI (HCC-2998 colon): > 100 µM
TGI (OVCAR-3 ovarian): > 100 µM
TGI (UACC-62 melanoma): > 100 µM
TGI (M14 melanoma): > 100 µM
TGI (ACHN renal): > 100 µM
TGI (RPMI-8226 leukemia): > 100 µM
TGI (SR leukemia): > 100 µM
TGI (SF-539 CNS): > 100 µM
TGI (SF-295 CNS): > 100 µM

C/C(N=Nc1nc2ccccc2[nH]1)=C1/C=CC=CN1O
TGI (HCC-2998 colon): > 100 µM
TGI (OVCAR-3 ovarian): > 100 µM
TGI (UACC-62 melanoma): > 100 µM
TGI (M14 melanoma): > 100 µM
TGI (ACHN renal): > 100 µM
TGI (NCI-H522 lung): > 100 µM
TGI (RPMI-8226 leukemia): > 100 µM
TGI (SR leukemia): > 100 µM
TGI (SF-539 CNS): > 100 µM
TGI (CCRF-CEM leukemia): > 100 µM
TGI (SF-295 CNS): > 100 µM
